These molecules were tested on T. b. brucei Lister427 bloodstream form parasites (assay: T. b. brucei growth inhibition assay (CellTiter-Glo, 48 hours)). Conditions: Trypanosoma brucei.
Format: cell-based
Excerpt: Bloodstream form of T. b. brucei Lister427 strain was obtained from the Genomics Institute of the Novartis Research Foundation. This strain was used for carrying out growth inhibition and kill kinetics assays. T. b. gambiense STIB930 and T. b. rhodesiense STIB900 were obtained from Swiss TPH, were used for carrying out the growth inhibition assays.
Bloodstream form T. b. brucei Lister 427 parasites were continuously passaged in HMI-9 medium formulated from IMDM medium (Invitrogen), 10% heat-inactivated fetal bovine serum (FBS), 10% Serum Plus medium supplement (SAFC Biosciences), 1 mM hypoxanthine (Sigma-Aldrich), 50 μM bathocuproine disulfonic acid (Sigma-Aldrich), 1.5 mM cysteine (Sigma-Aldrich), 1 mM pyruvic acid (Sigma-Aldrich), 39 μg/mL thymidine (Sigma-Aldrich), and 14 μL/L beta-mercapthoethanol (Sigma-Aldrich); all concentrations of added components refer to that in complete HMI-9 medium. The parasites were cultured in 10 mL of HMI-9 medium in T75 CELL-STAR tissue culture flasks at 37° C./5% CO2.
To determine compound growth inhibitory potency on T. b. brucei Lister427 bloodstream form parasites, 200 nL of 10-point, 3 fold serially diluted compounds in DMSO were transferred to the wells of white, solid bottom 384-well plates (Greiner Bio-One) by either Echo 555 acoustic liquid handling system or Mosquito. Then, 1×10^4 of T. b. brucei parasites in 40 μL of HMI-9 medium were added to each well, and the plates were incubated for 48 hours at 37° C. in 5% CO2 incubators. Parasite numbers in individual plate wells were determined through quantification of intracellular ATP amount. The CellTiter-Glo luminescent cell viability reagent (Promega) was added to plate wells, and ATP-dependent luminescence signal was measured on Tecan M1000 plate Reader after 30 min incubation. Luminescence values in wells with compounds were divided by the average luminescence value of the plate DMSO controls, and used for calculation of compound IC50 values.

| Structure (SMILES) | IC50 [nM] |
| --- | --- |
| N#Cc1ncn(CC(=O)N2Cc3ccc(-c4cc(F)ccc4C(F)(F)F)cc3C2)n1 [Example 28, 1-(2-(5-(5-fluoro-2-(trifluoromethyl)phenyl)isoindolin-2-yl)-2-oxoethyl)-1H-1,2,4-triazole-3-carbonitrile] | < 100 |
| N#Cc1ncn(CC(=O)N2Cc3ccc(-c4cccnc4Cl)cc3C2)n1 [Example 47, 1-(2-(5-(2-chloropyridin-3-yl)isoindolin-2-yl)-2-oxoethyl)-1H-1,2,4-triazole-3-carbonitrile] | 100 to 1000 |
| N#Cc1ncn(CC(=O)N2Cc3ccc(-c4ccncc4Cl)cc3C2)n1 [Example 49, 1-(2-(5-(3-chloropyridin-4-yl)isoindolin-2-yl)-2-oxoethyl)-1H-1,2,4-triazole-3-carbonitrile] | 100 to 1000 |
| COc1ccc(-c2ccc3c(c2)CN(C(=O)Cn2cnc(C#N)n2)C3)c(OC)c1 [Example 53, 1-(2-(5-(2,4-dimethoxyphenyl)isoindolin-2-yl)-2-oxoethyl)-1H-1,2,4-triazole-3-carbonitrile] | ≥ 1000 |
| N#Cc1cccc(-c2ccc3c(c2)CN(C(=O)Cn2cnc(C#N)n2)C3)c1 [Example 54, 1-(2-(5-(3-cyanophenyl)isoindolin-2-yl)-2-oxoethyl)-1H-1,2,4-triazole-3-carbonitrile] | ≥ 1000 |
| N#Cc1ncn(CC(=O)N2Cc3ccc(-c4ccc(F)cc4F)cc3C2)n1 [Example 55, 1-(2-(5-(2,4-difluorophenyl)isoindolin-2-yl)-2-oxoethyl)-1H-1,2,4-triazole-3-carbonitrile] | ≥ 1000 |
| N#Cc1ncn(CC(=O)N2Cc3ccc(-c4ccc(F)nc4)cc3C2)n1 [Example 56, 1-(2-(5-(6-fluoropyridin-3-yl)isoindolin-2-yl)-2-oxoethyl)-1H-1,2,4-triazole-3-carbonitrile] | ≥ 1000 |
| COc1ccc(F)cc1-c1ccc2c(c1)CN(C(=O)Cn1cnc(C#N)n1)C2 [Example 57, 1-(2-(5-(5-fluoro-2-methoxyphenyl)isoindolin-2-yl)-2-oxoethyl)-1H-1,2,4-triazole-3-carbonitrile] | ≥ 1000 |
| N#Cc1ncn(CC(=O)N2Cc3ccc(-c4ccc(Cl)cc4F)cc3C2)n1 [Example 58, 1-(2-(5-(4-chloro-2-fluorophenyl)isoindolin-2-yl)-2-oxoethyl)-1H-1,2,4-triazole-3-carbonitrile] | ≥ 1000 |
| COc1ccc(OC)c(-c2ccc3c(c2)CN(C(=O)Cn2cnc(C#N)n2)C3)c1 [Example 59, 1-(2-(5-(2,5-dimethoxyphenyl)isoindolin-2-yl)-2-oxoethyl)-1H-1,2,4-triazole-3-carbonitrile] | ≥ 1000 |
| N#Cc1ncn(CC(=O)N2Cc3ccc(-c4ccncc4F)cc3C2)n1 [Example 60, 1-(2-(5-(3-fluoropyridin-4-yl)isoindolin-2-yl)-2-oxoethyl)-1H-1,2,4-triazole-3-carbonitrile] | ≥ 1000 |
| COc1ccc(-c2ccc3c(c2)CN(C(=O)Cn2cnc(C#N)n2)C3)cc1 [Example 61, 1-(2-(5-(4-methoxyphenyl)isoindolin-2-yl)-2-oxoethyl)-1H-1,2,4-triazole-3-carbonitrile] | ≥ 1000 |
| COc1ccc(OC(F)(F)F)cc1-c1ccc2c(c1)CN(C(=O)Cn1cnc(C#N)n1)C2 [Example 62, 1-(2-(5-(2-methoxy-5-(trifluoromethoxy)phenyl)isoindolin-2-yl)-2-oxoethyl)-1H-1,2,4-triazole-3-carbonitrile] | ≥ 1000 |
| N#Cc1ncn(CC(=O)N2Cc3ccc(-c4ccnc(F)c4)cc3C2)n1 [Example 63, 1-(2-(5-(2-fluoropyridin-4-yl)isoindolin-2-yl)-2-oxoethyl)-1H-1,2,4-triazole-3-carbonitrile] | ≥ 1000 |
| C#Cc1ccc(-c2ccc3c(c2)CN(C(=O)Cn2cnc(C#N)n2)C3)cc1 [Example 64, 1-(2-(5-(4-ethynylphenyl)isoindolin-2-yl)-2-oxoethyl)-1H-1,2,4-triazole-3-carbonitrile] | ≥ 1000 |
| N#Cc1ncn(CC(=O)N2Cc3ccc(-c4ccccc4F)cc3C2)n1 [Example 65, 1-(2-(5-(2-fluorophenyl)isoindolin-2-yl)-2-oxoethyl)-1H-1,2,4-triazole-3-carbonitrile] | ≥ 1000 |
| N#Cc1ncn(CC(=O)N2Cc3ccc(-c4ccncc4)cc3C2)n1 [Example 66, 1-(2-oxo-2-(5-(pyridin-4-yl)isoindolin-2-yl)ethyl)-1H-1,2,4-triazole-3-carbonitrile] | ≥ 1000 |
| N#Cc1ncn(CC(=O)N2Cc3ccc(-c4ccc(Br)cc4)cc3C2)n1 [Example 67, 1-(2-(5-(4-bromophenyl)isoindolin-2-yl)-2-oxoethyl)-1H-1,2,4-triazole-3-carbonitrile] | ≥ 1000 |
| N#Cc1ncn(CC(=O)N2Cc3ccc(-c4ccc(F)c(Cl)c4)cc3C2)n1 [Example 68, 1-(2-(5-(3-chloro-4-fluorophenyl)isoindolin-2-yl)-2-oxoethyl)-1H-1,2,4-triazole-3-carbonitrile] | ≥ 1000 |
| N#Cc1ncn(CC(=O)N2Cc3ccc(-c4ccccc4-c4ccccc4)cc3C2)n1 [Example 69, 1-(2-(5-([1,1′-biphenyl]-2-yl)isoindolin-2-yl)-2-oxoethyl)-1H-1,2,4-triazole-3-carbonitrile] | ≥ 1000 |
| N#Cc1ncn(CC(=O)N2Cc3ccc(-c4ccc(Cl)c(F)c4)cc3C2)n1 [Example 70, 1-(2-(5-(4-chloro-3-fluorophenyl)isoindolin-2-yl)-2-oxoethyl)-1H-1,2,4-triazole-3-carbonitrile] | ≥ 1000 |
| N#Cc1ncn(CC(=O)N2Cc3ccc(-c4ccc(Cl)cc4)cc3C2)n1 [Example 71, 1-(2-(5-(4-chlorophenyl)isoindolin-2-yl)-2-oxoethyl)-1H-1,2,4-triazole-3-carbonitrile] | ≥ 1000 |
| N#Cc1ncn(CC(=O)N2Cc3ccc(-c4ccc(F)c(F)c4)cc3C2)n1 [Example 72, 1-(2-(5-(3,4-difluorophenyl)isoindolin-2-yl)-2-oxoethyl)-1H-1,2,4-triazole-3-carbonitrile] | ≥ 1000 |
| N#Cc1ncn(CC(=O)N2Cc3ccc(-c4cccnc4F)cc3C2)n1 [Example 73, 1-(2-(5-(2-fluoropyridin-3-yl)isoindolin-2-yl)-2-oxoethyl)-1H-1,2,4-triazole-3-carbonitrile] | ≥ 1000 |
| N#Cc1ncn(CC(=O)N2Cc3ccc(-c4cc(F)cc(F)c4)cc3C2)n1 [Example 74, 1-(2-(5-(3,5-difluorophenyl)isoindolin-2-yl)-2-oxoethyl)-1H-1,2,4-triazole-3-carbonitrile] | ≥ 1000 |
| COc1ccccc1-c1ccc2c(c1)CN(C(=O)Cn1cnc(C#N)n1)C2 [Example 75, 1-(2-(5-(2-methoxyphenyl)isoindolin-2-yl)-2-oxoethyl)-1H-1,2,4-triazole-3-carbonitrile] | ≥ 1000 |
| N#Cc1ncn(CC(=O)N2Cc3ccc(-c4ccc(C(F)(F)F)cc4)cc3C2)n1 [Example 76, 1-(2-oxo-2-(5-(4-(trifluoromethyl)phenyl)isoindolin-2-yl)ethyl)-1H-1,2,4-triazole-3-carbonitrile] | ≥ 1000 |
| COc1cccc(-c2ccc3c(c2)CN(C(=O)Cn2cnc(C#N)n2)C3)c1 [Example 77, 1-(2-(5-(3-methoxyphenyl)isoindolin-2-yl)-2-oxoethyl)-1H-1,2,4-triazole-3-carbonitrile] | ≥ 1000 |
| Cc1cc(-c2ccc3c(c2)CN(C(=O)Cn2cnc(C#N)n2)C3)ccc1C(F)(F)F [Example 78, 1-(2-(5-(3-methyl-4-(trifluoromethyl)phenyl)isoindolin-2-yl)-2-oxoethyl)-1H-1,2,4-triazole-3-carbonitrile] | ≥ 1000 |
